Assay results published in publication PMC7402526, “An in vitro quantitative systems pharmacology approach for deconvolving mechanisms of drug-induced, multilineage cytopenias” (PLoS Computational Biology, 2020).

Key:
MK cells (MK-lin) = experiment: MLTA, MK: concentration-response and QSP model fit; format: cell-based, human; details: Homo sapiens, 144 h
Summary of the method: (§1)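 Six-day flow cytometry counts, bead-normalized and expressed relative to the mean of six vehicle wells, underlie each value. Cells were primary human bone marrow CD34+ cells cultured in SFEM II with cytokines promoting multi-lineage differentiation and self-renewal.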

[1] = test system: neutrophils (neutrophil-lin); experiment: MLTA, Neut: concentration-response and QSP model fit; format: cell-based, human; details: Homo sapiens, Neutrophil, 144 h
Summary of the method: as §1

[2] = test system: granulocyte progenitor (Gran-lin prog); experiment: MLTA, GranP: concentration-response and QSP model fit; format: cell-based, human; details: Homo sapiens, 144 h
Summary of the method: (§2)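 Freeze-thawed primary human bone marrow CD34+ cells were cultured 6 days in SFEM II with a cytokine cocktail, drug added on day 0. Subsets were counted by 17-parameter flow cytometry with TruCount beads and normalized to vehicle wells. An Emax QSP model (Emax 0–2, L1 regularization) was fitted to these counts.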

[3] = test system: lymphocyte progenitors (LymP); experiment: MLTA, LymP: concentration-response and QSP model fit; format: cell-based, human; details: Homo sapiens, Lymphocyte, 144 h
Summary of the method: as §1

[4] = test system: total viable cells (totalViableCells); experiment: MLTA, total live cells concentration-response; format: cell-based; details: Homo sapiens, 144 h, 6 days, normalized to vehicle control, read-out: total_live normalized cell count
Description: A custom optimized cytokine cocktail was developed using commercially available cytokines (Peprotech, New Jersey) to facilitate simultaneous multi-lineage differentiation and self-renewal of freeze-thawed primary human bone marrow-derived CD34+ cells in SFEM II media (cells and media from StemCell Technologies, Vancouver). Cultures were carried out in ultra-low attachment 96-well plates (Corning, New York) with test article added on day 0 and cultured at 37°C, 85% relative humidity, and 5% CO2 for six days before interrogating drug impact via 17-parameter flow cytometry.
The flow cytometry panel used to define hematopoietic subsets was composed of CD34-PECy7, CD90-PECY5, CD38-AF488, CD371-PE, CD45Ra-BV421, CD14-BV605, CD42b-AF647, CD10-PEDazzle594, CD235a-PerCPCy5.5 (BioLegend, California), CD15-BUV395, CD41a-APCH7, CD71-BV786 (BD Biosciences, California), and DAPI for dead cell exclusion (ThermoFisher, California). In short, Day 6 cells were harvested, FcR-blocked (FcR binding inhibitor, ThermoFisher), surface-stained, then analyzed in a buffer containing TruCount Control Beads using a BD LSR Fortessa SORP fitted with a high-throughput sampler (BD Biosciences, California). Data was analyzed in Diva 6.0.2 and exported to CSV where after all cell data was transformed to cell per mL then normalized on a per-donor basis to untreated control wells to determine drug impact.
Donor material was collected and cultured as described above. The number of replicate donor samples per drug ranged from 2–7 and varied per drug (S1 Table). Drug treatment was added at time 0 and cells were maintained in culture for 6 days. Concentrations tested for each drug compound are contained in S1 Table. Concentrations were selected to span a range that is clinically useful. Following treatment, cell populations were measured using flow cytometry. We extracted cell counts from flow cytometry data, normalized to bead counts, and corrected for well volume.
Each well was normalized to the average of six vehicle control wells. For drugs that were tested across multiple runs of the assay, vehicle-normalized donor data were pooled, and we used the average of these pooled data for further modeling. Normalized data used as model inputs are included in S1 Table.

granulocytes (Gran-lin) = experiment: MLTA, Gran: concentration-response and QSP model fit; format: cell-based, human; details: Homo sapiens, 144 h
Summary of the method: as §2

[5] = test system: granulocyte-macrophage progenitor (GMPs); experiment: MLTA, GMPs: concentration-response and QSP model fit; format: cell-based, human; details: Homo sapiens, 144 h
Summary of the method: as §1

[6] = QSP model fit of 6-day MLTA data

With `CN(C)C(=O)c1cc2cnc(Nc3ccc(N4CCNCC4)cn3)nc2n1C1CCCC1` [ribociclib] the EC50 (MK cells (MK-lin); [6]) was 2040 nM, the activity at 0.0002 µM (MK cells (MK-lin); dose 0.2 nM, 6 days, normalized to vehicle control, read-out: MK normalized cell count) was 102% and the activity at 0.001 µM (MK cells (MK-lin); dose 1 nM, 6 days, normalized to vehicle control, read-out: MK normalized cell count) was 98.3%. The activity at 0.005 µM (MK cells (MK-lin); dose 5 nM, 6 days, normalized to vehicle control, read-out: MK normalized cell count) was 91.7%, the activity at 0.025 µM (MK cells (MK-lin); dose 25 nM, 6 days, normalized to vehicle control, read-out: MK normalized cell count) was 83.6% and the activity at 0.1 µM (MK cells (MK-lin); dose 100 nM, 6 days, normalized to vehicle control, read-out: MK normalized cell count) was 101%. The activity at 0.5 µM (MK cells (MK-lin); dose 500 nM, 6 days, normalized to vehicle control, read-out: MK normalized cell count) was 64.4%, the activity at 2.5 µM (MK cells (MK-lin); dose 2500 nM, 6 days, normalized to vehicle control, read-out: MK normalized cell count) was 27.7% and the Emax (MK cells (MK-lin); parameter from QSP model fitting, read-out: Emax_drug_MK) was 4.81%. For the same compound, the EC50 [1, 6] was 178 nM, the activity at 0.0002 µM ([1]; dose 0.2 nM, 6 days, normalized to vehicle control, read-out: Neut normalized cell count) was 77.2% and the activity at 0.001 µM ([1]; dose 1 nM, 6 days, normalized to vehicle control, read-out: Neut normalized cell count) was 83.1%. The activity at 0.005 µM ([1]; dose 5 nM, 6 days, normalized to vehicle control, read-out: Neut normalized cell count) was 96.4%, the activity at 0.025 µM ([1]; dose 25 nM, 6 days, normalized to vehicle control, read-out: Neut normalized cell count) was 65.4% and the activity at 0.1 µM ([1]; dose 100 nM, 6 days, normalized to vehicle control, read-out: Neut normalized cell count) was 52.7%. For the same compound, the activity at 0.5 µM ([1]; dose 500 nM, 6 days, normalized to vehicle control, read-out: Neut normalized cell count) was 25.1%, the activity at 2.5 µM ([1]; dose 2500 nM, 6 days, normalized to vehicle control, read-out: Neut normalized cell count) was 4.85% and the Emax ([1]; parameter from QSP model fitting, read-out: Emax_drug_Neut) was 13.9%. For the same compound, the EC50 ([2]; QSP model fit of 6-day MLTA data, read-out: EC50GranP) was 21.4 nM, the activity at 0.0002 µM ([2]; dose 0.2 nM, 6 days, normalized to vehicle control, read-out: GranPs normalized cell count) was 87.1% and the activity at 0.001 µM ([2]; dose 1 nM, 6 days, normalized to vehicle control, read-out: GranPs normalized cell count) was 105%. The activity at 0.005 µM ([2]; dose 5 nM, 6 days, normalized to vehicle control, read-out: GranPs normalized cell count) was 104%, the activity at 0.025 µM ([2]; dose 25 nM, 6 days, normalized to vehicle control, read-out: GranPs normalized cell count) was 81.3% and the activity at 0.1 µM ([2]; dose 100 nM, 6 days, normalized to vehicle control, read-out: GranPs normalized cell count) was 70.3%. For the same compound, the activity at 0.5 µM ([2]; dose 500 nM, 6 days, normalized to vehicle control, read-out: GranPs normalized cell count) was 34.4%, the activity at 2.5 µM ([2]; dose 2500 nM, 6 days, normalized to vehicle control, read-out: GranPs normalized cell count) was 10.8% and the Emax ([2]; parameter from QSP model fitting, read-out: Emax_drug_GranP) was 6.43%. For the same compound, the activity at 0.0002 µM ([3]; dose 0.2 nM, 6 days, normalized to vehicle control, read-out: LymP normalized cell count) was 87.8%, the activity at 0.001 µM ([3]; dose 1 nM, 6 days, normalized to vehicle control, read-out: LymP normalized cell count) was 95.2% and the activity at 0.005 µM ([3]; dose 5 nM, 6 days, normalized to vehicle control, read-out: LymP normalized cell count) was 100%. The activity at 0.025 µM ([3]; dose 25 nM, 6 days, normalized to vehicle control, read-out: LymP normalized cell count) was 61.7%, the activity at 0.1 µM ([3]; dose 100 nM, 6 days, normalized to vehicle control, read-out: LymP normalized cell count) was 39.1% and the activity at 0.5 µM ([3]; dose 500 nM, 6 days, normalized to vehicle control, read-out: LymP normalized cell count) was 17.4%. The activity at 2.5 µM ([3]; dose 2500 nM, 6 days, normalized to vehicle control, read-out: LymP normalized cell count) was 4.31%, the Emax ([3]; parameter from QSP model fitting, read-out: Emax_drug_LymP) was 0.032% and the viability at 0.0002 µM ([4]; dose 0.2 nM) was 90%. For the same compound, the viability at 0.001 µM ([4]; dose 1 nM) was 97.8%, the viability at 0.005 µM ([4]; dose 5 nM) was 106% and the viability at 0.025 µM ([4]; dose 25 nM) was 79.4%. It also gave a viability at 0.1 µM ([4]; dose 100 nM) of 66.6%, a viability at 0.5 µM ([4]; dose 500 nM) of 42.1% and a viability at 2.5 µM ([4]; dose 2500 nM) of 17.8%. The activity at 0.0002 µM (granulocytes (Gran-lin); dose 0.2 nM, 6 days, normalized to vehicle control, read-out: Gran normalized cell count) was 92.9%, the activity at 0.001 µM (granulocytes (Gran-lin); dose 1 nM, 6 days, normalized to vehicle control, read-out: Gran normalized cell count) was 98.1% and the activity at 0.005 µM (granulocytes (Gran-lin); dose 5 nM, 6 days, normalized to vehicle control, read-out: Gran normalized cell count) was 109%. It also gave an activity at 0.025 µM (granulocytes (Gran-lin); dose 25 nM, 6 days, normalized to vehicle control, read-out: Gran normalized cell count) of 74.6%, an activity at 0.1 µM (granulocytes (Gran-lin); dose 100 nM, 6 days, normalized to vehicle control, read-out: Gran normalized cell count) of 50.7% and an activity at 0.5 µM (granulocytes (Gran-lin); dose 500 nM, 6 days, normalized to vehicle control, read-out: Gran normalized cell count) of 23.7%. For the same compound, the activity at 2.5 µM (granulocytes (Gran-lin); dose 2500 nM, 6 days, normalized to vehicle control, read-out: Gran normalized cell count) was 6.7%, the Emax (granulocytes (Gran-lin); parameter from QSP model fitting, read-out: Emax_drug_Gran) was 0.0359% and the EC50 [5, 6] was 141 nM. The activity at 0.0002 µM ([5]; dose 0.2 nM, 6 days, normalized to vehicle control, read-out: GMPs normalized cell count) was 91.2%, the activity at 0.001 µM ([5]; dose 1 nM, 6 days, normalized to vehicle control, read-out: GMPs normalized cell count) was 92.5% and the activity at 0.005 µM ([5]; dose 5 nM, 6 days, normalized to vehicle control, read-out: GMPs normalized cell count) was 103%. It also gave an activity at 0.025 µM ([5]; dose 25 nM, 6 days, normalized to vehicle control, read-out: GMPs normalized cell count) of 85%, an activity at 0.1 µM ([5]; dose 100 nM, 6 days, normalized to vehicle control, read-out: GMPs normalized cell count) of 73.4% and an activity at 0.5 µM ([5]; dose 500 nM, 6 days, normalized to vehicle control, read-out: GMPs normalized cell count) of 54.4%. The activity at 2.5 µM ([5]; dose 2500 nM, 6 days, normalized to vehicle control, read-out: GMPs normalized cell count) was 29.5%.
